In PubChem BioAssay (NCI):
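Five compound concentrations were applied to cells in 96-well plates for 48 hours; endpoints were derived by simple linear interpolation of the resulting dose-response curve. Here, GI50 denotes the concentration required for 50% inhibition of growth. TGI denotes the concentration required for complete inhibition of growth.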

Legend:
Test in all cases: DTP human tumour cell line panel, 48 h
BT-549 breast = system: BT-549 breast
DU-145 prostate = system: DU-145 prostate
EKVX NSCLC = system: EKVX NSCLC
M14 melanoma = system: M14 melanoma
NCI-H226 lung = system: NCI-H226 lung
OVCAR-3 ovarian = system: OVCAR-3 ovarian
PC-3 prostate = system: PC-3 prostate
SF-539 CNS = system: SF-539 CNS
UACC-62 melanoma = system: UACC-62 melanoma
MDA-MB-435 = system: MDA-MB-435

What does the source list for `COc1ccc(/C=C(\C#N)n2nnc3ccccc32)cc1`?
GI50 (BT-549 breast): 1.11 µM; TGI (BT-549 breast): 17.1 µM; GI50 (DU-145 prostate): 0.323 µM; GI50 (EKVX NSCLC): 0.431 µM; TGI (EKVX NSCLC): > 100 µM; GI50 (M14 melanoma): 0.071 µM; TGI (M14 melanoma): 2.02 µM; GI50 (NCI-H226 lung): 1.11 µM; TGI (NCI-H226 lung): 21.2 µM; GI50 (OVCAR-3 ovarian): 0.046 µM; GI50 (PC-3 prostate): 0.293 µM; TGI (PC-3 prostate): > 60 µM; GI50 (SF-539 CNS): 0.252 µM; TGI (SF-539 CNS): 0.869 µM; GI50 (UACC-62 melanoma): 0.0893 µM; TGI (UACC-62 melanoma): 19.7 µM

What does the source list for `Oc1ccccc1C=Nc1nc(SCc2ccccc2)nc2[nH]ncc12`?
GI50 (BT-549 breast): > 100 µM; TGI (BT-549 breast): > 100 µM; GI50 (DU-145 prostate): > 100 µM; TGI (DU-145 prostate): > 100 µM; GI50 (EKVX NSCLC): > 100 µM; TGI (EKVX NSCLC): > 100 µM; GI50 (M14 melanoma): 38.4 µM; TGI (M14 melanoma): > 100 µM; GI50 (MDA-MB-435): 35.8 µM; TGI (MDA-MB-435): > 100 µM; GI50 (NCI-H226 lung): 54.3 µM; TGI (NCI-H226 lung): > 100 µM; GI50 (OVCAR-3 ovarian): 64.5 µM; TGI (OVCAR-3 ovarian): > 100 µM; GI50 (PC-3 prostate): 37.2 µM; TGI (PC-3 prostate): > 100 µM; GI50 (SF-539 CNS): > 100 µM; TGI (SF-539 CNS): > 100 µM; GI50 (UACC-62 melanoma): 28.1 µM; TGI (UACC-62 melanoma): 73.7 µM

How did the TGI (BT-549 breast) turn out when `O=Cc1ccccc1B(O)O` was run?
Its TGI is 95.9 µM.

What about the TGI (M14 melanoma) of the same compound?
The TGI was over 100 µM.

What about the TGI (MDA-MB-435) of the same compound?
Its TGI is over 100 µM.

What about the TGI (NCI-H226 lung) of the same compound?
Its TGI is over 100 µM.

And the TGI (OVCAR-3 ovarian)?
Its TGI is over 100 µM.

What about the TGI (PC-3 prostate) of the same compound?
Its TGI is over 100 µM.

And the TGI (SF-539 CNS)?
Its TGI is over 100 µM.

What about the TGI (UACC-62 melanoma) of the same compound?
Its TGI is over 100 µM.

`CN1CC[C@]2(C)c3cc(O)ccc3CC3CCCC1C32C` (stereo not given in full) was tested. Which TGI (EKVX NSCLC) did it give?
Its TGI is over 100 µM.

What about the TGI (M14 melanoma) of the same compound?
The TGI was over 100 µM.

What about the TGI (NCI-H226 lung) of the same compound?
The TGI was over 100 µM.

What about the TGI (OVCAR-3 ovarian) of the same compound?
The TGI was over 100 µM.

And the TGI (SF-539 CNS)?
Its TGI is over 100 µM.

And the TGI (UACC-62 melanoma)?
Its TGI is over 100 µM.

Which GI50 (BT-549 breast) does the source give for `COc1ccc(S(=O)(=O)Nc2cc(/C=C\c3cc(OC)c(OC)c(OC)c3)ccc2OC)cc1` here?
Its GI50 is 0.197 µM.

What about the TGI (BT-549 breast) of the same compound?
The TGI was over 100 µM.

And the GI50 (DU-145 prostate)?
Its GI50 is 0.341 µM.

And the TGI (DU-145 prostate)?
Its TGI is over 100 µM.

And the GI50 (M14 melanoma)?
The GI50 was 0.103 µM.

And the TGI (M14 melanoma)?
The TGI was over 100 µM.

And the GI50 (NCI-H226 lung)?
The GI50 was 12.8 µM.

What about the TGI (NCI-H226 lung) of the same compound?
Its TGI is over 100 µM.

And the GI50 (OVCAR-3 ovarian)?
The GI50 was 0.053 µM.

What about the TGI (OVCAR-3 ovarian) of the same compound?
Its TGI is over 100 µM.

What about the GI50 (PC-3 prostate) of the same compound?
Its GI50 is 0.124 µM.

And the TGI (PC-3 prostate)?
Its TGI is over 100 µM.

What about the GI50 (SF-539 CNS) of the same compound?
The GI50 was 0.126 µM.

And the TGI (SF-539 CNS)?
Its TGI is 0.713 µM.

And the GI50 (UACC-62 melanoma)?
Its GI50 is 0.049 µM.

And the TGI (UACC-62 melanoma)?
The TGI was over 100 µM.

How did the TGI (EKVX NSCLC) turn out when `CN(C)CCNC(=O)c1cccc2[nH]c(-c3cccnc3)nc12` was run?
The TGI was 56.5 µM.

And the TGI (M14 melanoma)?
Its TGI is 43.8 µM.

And the TGI (NCI-H226 lung)?
Its TGI is 56.6 µM.

What about the TGI (OVCAR-3 ovarian) of the same compound?
Its TGI is 56.3 µM.

And the TGI (SF-539 CNS)?
The TGI was 45.5 µM.

What about the TGI (UACC-62 melanoma) of the same compound?
The TGI was 34.2 µM.

For `COC(=O)[C@]12CC=C3O[C@@H]4OC5(CCCCC5)O[C@@H]4C3[C@@H]1C(=O)CCC2=O` (stereo not given in full), which TGI (EKVX NSCLC) is on record?
Its TGI is over 100 µM.

And the TGI (M14 melanoma)?
The TGI was over 100 µM.

What about the TGI (NCI-H226 lung) of the same compound?
Its TGI is over 100 µM.

What about the TGI (OVCAR-3 ovarian) of the same compound?
Its TGI is over 100 µM.

And the TGI (UACC-62 melanoma)?
Its TGI is over 100 µM.

`Oc1ccccc1CNCC12CC3CC(CC(C3)C1)C2` was tested. Which GI50 (BT-549 breast) did it give?
Its GI50 is 14 µM.

And the TGI (BT-549 breast)?
The TGI was 74.8 µM.

What about the GI50 (DU-145 prostate) of the same compound?
Its GI50 is 48.9 µM.

And the TGI (DU-145 prostate)?
Its TGI is over 100 µM.

What about the GI50 (M14 melanoma) of the same compound?
The GI50 was 15.7 µM.

What about the TGI (M14 melanoma) of the same compound?
Its TGI is 38.3 µM.

And the GI50 (MDA-MB-435)?
The GI50 was 18.6 µM.

What about the TGI (MDA-MB-435) of the same compound?
Its TGI is 43.7 µM.

What about the GI50 (NCI-H226 lung) of the same compound?
The GI50 was 68.5 µM.

What about the TGI (NCI-H226 lung) of the same compound?
Its TGI is over 100 µM.

What about the GI50 (OVCAR-3 ovarian) of the same compound?
The GI50 was 57.5 µM.

What about the TGI (OVCAR-3 ovarian) of the same compound?
The TGI was over 100 µM.

And the GI50 (PC-3 prostate)?
The GI50 was 26 µM.

What about the TGI (PC-3 prostate) of the same compound?
The TGI was over 100 µM.

And the GI50 (SF-539 CNS)?
Its GI50 is 33.3 µM.

And the TGI (SF-539 CNS)?
Its TGI is over 100 µM.

And the GI50 (UACC-62 melanoma)?
The GI50 was 17.8 µM.

And the TGI (UACC-62 melanoma)?
Its TGI is 38.7 µM.
